From patent US12697325B2 (TENNOR THERAPEUTICS (SUZHOU) LIMITED, priority 2021, dated 2026)

Tests used:
[1] = 2 g, q8 h via infusion for 3 h; cited from earlier work
[2] = cited from earlier work
[3] = test system: Acinetobacter baumannii strains; assay: Minimum inhibitory concentration (CLSI M07), Example 2, 20 strains; format: cell-based
Experimental: The minimum inhibitory concentration (MIC) was determined in accordance with the requirements of the Clinical and Laboratory Standards Institute (CLSI) M07 (for aerobic bacteria).
3.1 The compounds were diluted with DMSO up to 100 times of the highest concentration tested.
The steps of manual dilution are as follows (example): firstly, the compound or antibiotic was diluted to 100 times of the maximum final concentration tested, then 60 μL of compound mother liquor was added to the first column of the 96-well plate, and 30 μL of DMSO was added to each well in the second to the 12th column; 30 μL of the liquid was transferred from the first column to the second column. After being pipetted up and down to even, 30 μL was transferred to the third column, and was diluted in sequence at a 2-fold gradient for a total of 10 times; then 30 μL was removed from each well in the 11th column, then a compound solution diluted at 2-fold gradient was obtained and 1 μL was transferred to a 96-well test plate.
Aerobic bacteria: the strains were inoculated on MHA one day in advance and incubated overnight at 37° C. On the day of the assay, 5-6 single colonies were picked and suspended evenly in saline, and the bacterial concentration was adjusted to the turbidity of 0.5 McFarland standard (concentration is about 1×10^8 CFU/mL). The bacterial suspension was diluted at 200-fold with the corresponding liquid culture medium (Table 1), i.e., the bacterial concentration was ~5×10^5 CFU/ml, and then 100 μL of the liquid was transferred to a 96-well round bottom plate (the 96-well plate with compound prepared in 4.2, Echo method) to obtain the test plate. If the compound was manually diluted, then 99 μL of the solution was transferred into a 96-well round bottom plate. The 96-well round bottom plate obtained above was placed into an incubator at 37° C. and 85% humidity to incubate for 20 h.

## CC1(C)[C@H](C(=O)O)N2C(=O)C[C@H]2S1(=O)=O [Sulbactam, (2S, 5R)-3,3-dimethyl-7-oxo-4-thia-1-azabicyclo [3.2.0] heptane-2-carboxylic acid 4,4-dioxide]
[1]
  Part of the dosing interval with plasma concentration above 2 μg/mL: 44%
  Part of the dosing interval with plasma concentration above 4 μg/mL: 19%
[2]
  Protein binding: approximately 5.2%
[3]; strain BAA-1795, sulbactam/avibactam 4:1, concentration of the named component
  MIC of the strain BAA-1795 (component in the combination): 8 µg/mL
[3]; sulbactam sodium:avibactam sodium = 4:1, concentration of the named component
  MIC90 of the single component in the combination: 16 µg/mL
[3]; sulbactam sodium:avibactam sodium = 4:1, concentration of the named component, Examples 1 and 2
  MIC50 of the single component in the combination: 8 µg/mL
